Source: the NIST ThermoML archive (doi:10.1021/je034053i)
Numbers after ± are expanded uncertainties.

Tests used:
[1] = xn = mol fraction of the nth substance listed; details: 298.15 K, Drop volume
[2] = refractive index (Na D-line) (dimensionless); xn = mol fraction of the nth substance listed; details: 298.15 K, 101.3 kPa, Liquid, Standard Abbe refractometry
[3] = 298.15 K; for surface tension liquid-gas: Drop volume; for mass density: 101.33 kPa, Liquid
[4] = refractive index (Na D-line) (dimensionless); details: 298.15 K; 101.33 kPa; Liquid; Standard Abbe refractometry

CCCCCCO [hexan-1-ol] + CCCCCCCC
surface tension liquid-gas ([1]; x2 = 0.0515): 25.19 ± 0.22 mN/m | surface tension liquid-gas ([1]; x2 = 0.0944): 24.79 ± 0.22 mN/m | surface tension liquid-gas ([1]; x2 = 0.16): 24.22 ± 0.22 mN/m | surface tension liquid-gas ([1]; x2 = 0.1837): 24.03 ± 0.21 mN/m | surface tension liquid-gas ([1]; x2 = 0.2785): 23.38 ± 0.21 mN/m | surface tension liquid-gas ([1]; x2 = 0.3309): 23.08 ± 0.2 mN/m | surface tension liquid-gas ([1]; x2 = 0.4619): 22.48 ± 0.2 mN/m | surface tension liquid-gas ([1]; x2 = 0.4987): 22.32 ± 0.2 mN/m | surface tension liquid-gas ([1]; x2 = 0.5049): 22.3 ± 0.2 mN/m | surface tension liquid-gas ([1]; x2 = 0.5984): 22.02 ± 0.19 mN/m | surface tension liquid-gas ([1]; x2 = 0.6717): 21.83 ± 0.19 mN/m | surface tension liquid-gas ([1]; x2 = 0.7019): 21.74 ± 0.19 mN/m | surface tension liquid-gas ([1]; x2 = 0.7478): 21.65 ± 0.19 mN/m | surface tension liquid-gas ([1]; x2 = 0.7794): 21.58 ± 0.19 mN/m | surface tension liquid-gas ([1]; x2 = 0.8504): 21.45 ± 0.19 mN/m | surface tension liquid-gas ([1]; x2 = 0.895): 21.38 ± 0.18 mN/m | surface tension liquid-gas ([1]; x2 = 0.959): 21.25 ± 0.18 mN/m | refractive index ([2]; x2 = 0.0515): 1.4147 ± 0.0005 | refractive index ([2]; x2 = 0.0944): 1.4136 ± 0.0005 | refractive index ([2]; x2 = 0.16): 1.4119 ± 0.0004 | refractive index ([2]; x2 = 0.1837): 1.4113 ± 0.0004 | refractive index ([2]; x2 = 0.2785): 1.4091 ± 0.0004 | refractive index ([2]; x2 = 0.3311): 1.4079 ± 0.0004 | refractive index ([2]; x2 = 0.4619): 1.4049 ± 0.0004 | refractive index ([2]; x2 = 0.4987): 1.404 ± 0.0004 | refractive index ([2]; x2 = 0.5049): 1.4039 ± 0.0004 | refractive index ([2]; x2 = 0.5984): 1.402 ± 0.0004 | refractive index ([2]; x2 = 0.6717): 1.4007 ± 0.0004 | refractive index ([2]; x2 = 0.7019): 1.4 ± 0.0004 | refractive index ([2]; x2 = 0.7478): 1.3992 ± 0.0004 | refractive index ([2]; x2 = 0.7794): 1.3987 ± 0.0004 | refractive index ([2]; x2 = 0.8504): 1.3974 ± 0.0004 | refractive index ([2]; x2 = 0.895): 1.3966 ± 0.0004 | refractive index ([2]; x2 = 0.959): 1.3956 ± 0.0004

CCCCCCCC [octane] + CCCCO
surface tension liquid-gas ([1]; x1 = 0.0453): 23.65 ± 0.19 mN/m | surface tension liquid-gas ([1]; x1 = 0.113): 23.15 ± 0.19 mN/m | surface tension liquid-gas ([1]; x1 = 0.1636): 22.84 ± 0.19 mN/m | surface tension liquid-gas ([1]; x1 = 0.1788): 22.74 ± 0.19 mN/m | surface tension liquid-gas ([1]; x1 = 0.2956): 22.2 ± 0.19 mN/m | surface tension liquid-gas ([1]; x1 = 0.3281): 22.08 ± 0.19 mN/m | surface tension liquid-gas ([1]; x1 = 0.3526): 21.99 ± 0.19 mN/m | surface tension liquid-gas ([1]; x1 = 0.4467): 21.73 ± 0.18 mN/m | surface tension liquid-gas ([1]; x1 = 0.4857): 21.65 ± 0.18 mN/m | surface tension liquid-gas ([1]; x1 = 0.5747): 21.49 ± 0.18 mN/m | surface tension liquid-gas ([1]; x1 = 0.5886): 21.49 ± 0.18 mN/m | surface tension liquid-gas ([1]; x1 = 0.6326): 21.42 ± 0.18 mN/m | surface tension liquid-gas ([1]; x1 = 0.6918): 21.36 ± 0.18 mN/m | surface tension liquid-gas ([1]; x1 = 0.777): 21.29 ± 0.18 mN/m | surface tension liquid-gas ([1]; x1 = 0.8167): 21.28 ± 0.18 mN/m | surface tension liquid-gas ([1]; x1 = 0.865): 21.24 ± 0.18 mN/m | surface tension liquid-gas ([1]; x1 = 0.9376): 21.21 ± 0.18 mN/m | refractive index ([2]; x1 = 0.0453): 1.397 ± 0.0004 | refractive index ([2]; x1 = 0.113): 1.3966 ± 0.0004 | refractive index ([2]; x1 = 0.1636): 1.3964 ± 0.0004 | refractive index ([2]; x1 = 0.1788): 1.3963 ± 0.0004 | refractive index ([2]; x1 = 0.2956): 1.3957 ± 0.0004 | refractive index ([2]; x1 = 0.3526): 1.3955 ± 0.0004 | refractive index ([2]; x1 = 0.4467): 1.3952 ± 0.0004 | refractive index ([2]; x1 = 0.4857): 1.3951 ± 0.0004 | refractive index ([2]; x1 = 0.5747): 1.3949 ± 0.0004 | refractive index ([2]; x1 = 0.6326): 1.3948 ± 0.0004 | refractive index ([2]; x1 = 0.6918): 1.3948 ± 0.0004 | refractive index ([2]; x1 = 0.777): 1.3948 ± 0.0004 | refractive index ([2]; x1 = 0.8167): 1.3948 ± 0.0004 | refractive index ([2]; x1 = 0.865): 1.3948 ± 0.0004 | refractive index ([2]; x1 = 0.9376): 1.3949 ± 0.0004

CCO [ethanol]
surface tension liquid-gas [3]: 21.74 ± 0.14 mN/m | mass density [3]: 785.15 ± 1.9 kg/m3 | refractive index [4]: 1.3593 ± 0.0003

CCCCCCCCO [octan-1-ol] + CCCCCCCC
surface tension liquid-gas ([1]; x2 = 0.0641): 26.39 ± 0.2 mN/m | surface tension liquid-gas ([1]; x2 = 0.12): 25.83 ± 0.2 mN/m | surface tension liquid-gas ([1]; x2 = 0.1378): 25.59 ± 0.2 mN/m | surface tension liquid-gas ([1]; x2 = 0.1501): 25.5 ± 0.2 mN/m | surface tension liquid-gas ([1]; x2 = 0.2923): 24.29 ± 0.19 mN/m | surface tension liquid-gas ([1]; x2 = 0.3168): 24.11 ± 0.19 mN/m | surface tension liquid-gas ([1]; x2 = 0.3554): 23.84 ± 0.19 mN/m | surface tension liquid-gas ([1]; x2 = 0.4526): 23.23 ± 0.19 mN/m | surface tension liquid-gas ([1]; x2 = 0.495): 23 ± 0.19 mN/m | surface tension liquid-gas ([1]; x2 = 0.5413): 22.76 ± 0.19 mN/m | surface tension liquid-gas ([1]; x2 = 0.6269): 22.38 ± 0.19 mN/m | surface tension liquid-gas ([1]; x2 = 0.6566): 22.24 ± 0.19 mN/m | surface tension liquid-gas ([1]; x2 = 0.6897): 22.12 ± 0.19 mN/m | surface tension liquid-gas ([1]; x2 = 0.7547): 21.88 ± 0.18 mN/m | surface tension liquid-gas ([1]; x2 = 0.8114): 21.7 ± 0.18 mN/m | surface tension liquid-gas ([1]; x2 = 0.8617): 21.55 ± 0.18 mN/m | surface tension liquid-gas ([1]; x2 = 0.8832): 21.51 ± 0.18 mN/m | refractive index ([2]; x2 = 0.0641): 1.4257 ± 0.0004 | refractive index ([2]; x2 = 0.1378): 1.4231 ± 0.0004 | refractive index ([2]; x2 = 0.2923): 1.418 ± 0.0004 | refractive index ([2]; x2 = 0.3168): 1.4172 ± 0.0004 | refractive index ([2]; x2 = 0.3554): 1.4159 ± 0.0004 | refractive index ([2]; x2 = 0.4526): 1.4128 ± 0.0004 | refractive index ([2]; x2 = 0.495): 1.4114 ± 0.0004 | refractive index ([2]; x2 = 0.5413): 1.41 ± 0.0004 | refractive index ([2]; x2 = 0.6269): 1.4072 ± 0.0004 | refractive index ([2]; x2 = 0.6566): 1.4062 ± 0.0004 | refractive index ([2]; x2 = 0.6897): 1.4051 ± 0.0004 | refractive index ([2]; x2 = 0.7547): 1.403 ± 0.0004 | refractive index ([2]; x2 = 0.8114): 1.4012 ± 0.0004 | refractive index ([2]; x2 = 0.8617): 1.3995 ± 0.0004 | refractive index ([2]; x2 = 0.8832): 1.3989 ± 0.0004 | refractive index ([2]; x2 = 0.9635): 1.3961 ± 0.0004

CCCCCCCO [heptan-1-ol] + CCCCCCCC
surface tension liquid-gas ([1]; x2 = 0.0995): 25.35 ± 0.22 mN/m | surface tension liquid-gas ([1]; x2 = 0.1699): 24.68 ± 0.22 mN/m | surface tension liquid-gas ([1]; x2 = 0.1767): 24.63 ± 0.22 mN/m | surface tension liquid-gas ([1]; x2 = 0.2957): 23.72 ± 0.21 mN/m | surface tension liquid-gas ([1]; x2 = 0.3286): 23.52 ± 0.21 mN/m | surface tension liquid-gas ([1]; x2 = 0.353): 23.37 ± 0.21 mN/m | surface tension liquid-gas ([1]; x2 = 0.4567): 22.79 ± 0.2 mN/m | surface tension liquid-gas ([1]; x2 = 0.4918): 22.65 ± 0.2 mN/m | surface tension liquid-gas ([1]; x2 = 0.5587): 22.38 ± 0.2 mN/m | surface tension liquid-gas ([1]; x2 = 0.5956): 22.24 ± 0.19 mN/m | surface tension liquid-gas ([1]; x2 = 0.6564): 22.04 ± 0.19 mN/m | surface tension liquid-gas ([1]; x2 = 0.6626): 22.01 ± 0.19 mN/m | surface tension liquid-gas ([1]; x2 = 0.783): 21.68 ± 0.19 mN/m | surface tension liquid-gas ([1]; x2 = 0.7981): 21.63 ± 0.19 mN/m | surface tension liquid-gas ([1]; x2 = 0.8409): 21.53 ± 0.19 mN/m | surface tension liquid-gas ([1]; x2 = 0.9111): 21.38 ± 0.18 mN/m | surface tension liquid-gas ([1]; x2 = 0.958): 21.28 ± 0.18 mN/m | refractive index ([2]; x2 = 0.0616): 1.4205 ± 0.0005 | refractive index ([2]; x2 = 0.0995): 1.4194 ± 0.0005 | refractive index ([2]; x2 = 0.1699): 1.4174 ± 0.0004 | refractive index ([2]; x2 = 0.1767): 1.417 ± 0.0004 | refractive index ([2]; x2 = 0.2957): 1.4136 ± 0.0004 | refractive index ([2]; x2 = 0.3286): 1.4126 ± 0.0004 | refractive index ([2]; x2 = 0.353): 1.4119 ± 0.0004 | refractive index ([2]; x2 = 0.4567): 1.4091 ± 0.0004 | refractive index ([2]; x2 = 0.4918): 1.4081 ± 0.0004 | refractive index ([2]; x2 = 0.5587): 1.4062 ± 0.0004 | refractive index ([2]; x2 = 0.5956): 1.4051 ± 0.0004 | refractive index ([2]; x2 = 0.6564): 1.4036 ± 0.0004 | refractive index ([2]; x2 = 0.6629): 1.4034 ± 0.0004 | refractive index ([2]; x2 = 0.783): 1.4002 ± 0.0004 | refractive index ([2]; x2 = 0.7981): 1.3999 ± 0.0004 | refractive index ([2]; x2 = 0.8409): 1.3988 ± 0.0004 | refractive index ([2]; x2 = 0.9111): 1.3971 ± 0.0004

CCCO [propan-1-ol]
surface tension liquid-gas [3]: 23.39 ± 0.15 mN/m | mass density [3]: 799.62 ± 1.8 kg/m3 | refractive index [4]: 1.383 ± 0.0003

CCCCCCCCO [octan-1-ol]
surface tension liquid-gas [3]: 27.13 ± 0.17 mN/m | mass density [3]: 821.63 ± 1.6 kg/m3 | refractive index [4]: 1.4274 ± 0.0003
